Laboratory results reported in patent publication US10538561B2, “Peptide for treating inflammatory diseases” (priority 2015, dated 2020).
Marks after values point to notes of the source that are not given here.

Columns and labels:
8-oxo-G = experiment: UVB damage: 8-oxo-G formation (ELISA); format: cell-based, human; details: HaCaT, UVB 30 mJ/cm2, 5 μg/ml
Description: Effect on Cyclobutane Pyrimidine Dimers (CPD); Effect on 8-oxo-G formation: Cell line: HaCaT (human keratinocytes); test items: IS 181; concentration range: 0.1-100 μg/ml (Duplicate wells). Method of estimation: Plating of cells; Sera starvation with 0.1% FBS (24 hours); treatment of cells with test items (24 hours); UVB damage (30 mJ/cm2)+Test items addition (24 hours); Cyclobutane pyrimidine dimers (CPD) and 8-oxo-G estimation using ELISA.

VEGF = VEGF inhibition in keratinocytes (ELISA); format: cell-based, Human; parameters: inhibition of VEGF secretion as compared to untreated (basal) levels: dose or concentration left out as unconfirmed; details: HaCaT; for % Inhibition of VEGF wrt untreated (basal) levels / Conc. of VEGF: 24 h
Description: Cell lines: Human Keratinocytes (HaCaT); test item: IS181; treatment regimen: single addition—24 hours; concentration range: 0.1 μg/ml-100 μg/ml. […] Cells were serum-starved for another 24 hours (0% FBS). Cells were treated with IS181 for 24 hours. Supernatants were collected and stored at −20° C. till analysed. Levels of VEGF were analysed in supernatants by ELISA. Percent inhibition of VEGF secretion was calculated with reference to untreated levels. Positive control: curcumin; retinoic acid (at non-cytotoxic concentrations).

IL-6 = experiment: LPS stimulated IL-6 secretion in RAW264.7; format: cell-based, Mouse; details: for IL-6 % decrease with respect to LPS / IL-6 Conc (pg/ml): RAW264.7 + LPS, 24 h
Description: Effect on pro-inflammatory cytokines against LPS stimulation: TNF-α; IL-6; IL-1-β: Cell lines: Murine macrophage cell line (RAW264.7); test item: IS181; experimental steps: pretreatment of cells with TI for 2 hours; stimulation with LPS (100 ng/ml) for 24 hours; supernatant collection for cytokine analysis; concentration range: o.1 μg/ml-500 μg/ml (duplicate wells); Cytokines: TNF-α; IL-6; IL-1-β; Method of estimating cytokines: ELISA; positive control: dexamethasone.
Cell line: RAW264.7 (Mouse macrophages); TI treatment regimen: Pretreatment for 2 h; TI Concentration range: 0.1 μg/ml-500 μg/ml (duplicate wells); LPS stimulation: 100 ng/ml; Time point for supernatants collection: 24 h; Method of estimation: ELISA; Positive control: Dexamethasone

EGFR (ErbB1) = EGFR (ErbB1) (Homo sapiens, UniProt P00533); experiment: Biochemical kinase assay EGFR
Description: Test system: cell free assays; test items: IS181; concentrations tested: 1 ng/ml-5000 μg/ml; Kinases: a) Cell free assays: EGFR (ErbB1); FLT1 (VEGFR1); JAK1; JAK3 MAP2K1 (MEK1); PDGFRA (PDGFR alpha); PRKCA (PKC alpha); b) cell based assay: JAK-STAT.

[1] = Solution stability in diluents; format: physicochemical; details: 24 hours
Description: The solution stability of peptide IS 181 was performed in four different diluents at three different temperatures for 24 hours. Four different pre-formulations of concentration 10 mg/ml were prepared and formulation assay was performed at initial and […] at room temperature.

[2] = tested on: Human Keratinocytes (HaCaT); experiment: Cell cycle assay (Sub-G0/G1); format: cell-based; details: 48 h
Description: Cell lines: Human Keratinocytes (HaCaT); test Item: IS181; treatment regimen: treated twice (once after 24 hours)-48 hours; concentration range: 100 6 g/ml-5000 6 g/ml. […] Cells were treated with IS181 for 24 hours. After 24 h, cells were again treated with IS181 for 24 hours. After 48 h of first treatment, cells were harvested and fixed in ethanol overnight. Cells were washed and stained with Cell cycle reagent and acquired on flow cytometer. […] Positive control: Curcumin.

TNF-α = TNF-α level in TNF-α stimulated HaCaT; format: cell-based, Human; details: 24 h
Description: Effect on pro-inflammatory cytokines against TNF-α/LPS+PMA stimulation: TNF-α; IFN-γ; TARC; TSLP; IL-6; IL-8: Cell lines: Human keratinocytes (HaCaT); test item (TI); IS181; experimental steps: pre-treatment of cells with TI for 2 hours; stimulation with TNF-α: 20 ng/ml; stimulation with LPS+PMA-10 μg/ml LPS+40 ng/ml PMA; supernatant collection for cytokine analysis after 24 hours; concentration range: 0.1 μg/ml-100 μg/ml (duplicate wells); cytokines: TNF-α; IFN-γ; TARC; TSLP; IL-6; IL-8. Method of estimating cytokines: ELISA; positive control: dexamethasone.
Cell line: HaCaT (Human Keratinocytes); TI Treatment regimen: Pretreatment for 2 h; TI Concentration range: 0.1 μg/ml-100 μg/ml (duplicate wells); TNF-α stimulation: 20 ng/ml; LPS+PMA stimulation: 10 μg/ml LPS+40 ng/ml PMA; Time point for supernatants collection: 24 h; Method of estimation: ELISA; Positive control: Dexamethasone

EGFR (ErbB1), sequence (P00533 25-1210): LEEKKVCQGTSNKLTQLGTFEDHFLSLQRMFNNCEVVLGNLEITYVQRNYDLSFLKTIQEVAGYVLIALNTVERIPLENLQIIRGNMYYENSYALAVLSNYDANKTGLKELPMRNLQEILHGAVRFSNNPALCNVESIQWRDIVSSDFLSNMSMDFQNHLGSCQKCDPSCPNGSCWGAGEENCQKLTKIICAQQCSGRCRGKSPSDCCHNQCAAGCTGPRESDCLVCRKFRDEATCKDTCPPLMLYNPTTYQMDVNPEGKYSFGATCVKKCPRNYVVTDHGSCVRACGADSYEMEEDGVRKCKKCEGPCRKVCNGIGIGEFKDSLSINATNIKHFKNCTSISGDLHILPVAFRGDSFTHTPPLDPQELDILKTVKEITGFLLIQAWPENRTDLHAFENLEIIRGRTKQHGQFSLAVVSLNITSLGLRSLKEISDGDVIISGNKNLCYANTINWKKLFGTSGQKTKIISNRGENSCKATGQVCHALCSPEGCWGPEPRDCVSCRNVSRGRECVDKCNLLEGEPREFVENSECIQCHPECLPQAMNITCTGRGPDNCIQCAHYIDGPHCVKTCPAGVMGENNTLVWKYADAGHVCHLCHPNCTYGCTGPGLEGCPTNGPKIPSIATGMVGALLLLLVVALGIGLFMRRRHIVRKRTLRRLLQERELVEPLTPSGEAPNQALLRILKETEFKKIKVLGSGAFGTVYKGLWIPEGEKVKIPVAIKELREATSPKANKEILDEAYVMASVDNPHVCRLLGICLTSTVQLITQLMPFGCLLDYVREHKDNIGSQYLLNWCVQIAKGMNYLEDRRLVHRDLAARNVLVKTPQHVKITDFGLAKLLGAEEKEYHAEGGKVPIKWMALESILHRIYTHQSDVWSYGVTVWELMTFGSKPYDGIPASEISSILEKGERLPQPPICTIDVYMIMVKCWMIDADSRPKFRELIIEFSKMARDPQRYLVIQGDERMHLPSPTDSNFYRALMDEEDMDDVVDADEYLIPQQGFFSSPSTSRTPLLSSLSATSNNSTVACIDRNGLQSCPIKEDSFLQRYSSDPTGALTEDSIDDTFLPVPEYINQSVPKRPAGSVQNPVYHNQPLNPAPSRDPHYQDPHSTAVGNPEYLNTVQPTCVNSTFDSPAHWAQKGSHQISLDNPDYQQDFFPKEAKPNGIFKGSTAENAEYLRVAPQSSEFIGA

Substance: H-WVQRVVEKFLK-OH [IS181, H-Trp-Val-Gln-Arg-Val-Val-Glu-Lys-Phe-Leu-Lys-OH]
- % Decrease in 8-OCO-G formation with respect to UVB irradiated untreated cells (8-oxo-G): 15.5%
- inhibition of VEGF secretion as compared to untreated (basal) levels (VEGF): 11.1%-17%
- % Inhibition of VEGF wrt untreated (basal) levels (VEGF; 0.1 μg/ml): 17.0%
- Conc. of VEGF (VEGF; 0.1 μg/ml): 2982.4 pg/mL
- % Inhibition of VEGF wrt untreated (basal) levels (VEGF; 1 μg/ml): 12.6%
- Conc. of VEGF (VEGF; 1 μg/ml): 3139.7 pg/mL
- % Inhibition of VEGF wrt untreated (basal) levels (VEGF; 5 μg/ml): 11.1%
- Conc. of VEGF (VEGF; 5 μg/ml): 3193.5 pg/mL
- % Inhibition of VEGF wrt untreated (basal) levels (VEGF; 10 μg/ml): 12.9%
- Conc. of VEGF (VEGF; 10 μg/ml): 3128.2 pg/mL
- % Inhibition of VEGF wrt untreated (basal) levels (VEGF; 100 μg/ml): 0.7%
- Conc. of VEGF (VEGF; 100 μg/ml): 3565.8 pg/mL
- IL-6 inhibition as compared to LPS stimulated levels (IL-6; RAW264.7): good extent of TNF-α and IL-6 inhibition
- IL-6 % decrease with respect to LPS (IL-6; 0.1 μ/ml): 57.2%
- IL-6 Conc (pg/ml) (IL-6; 0.1 μ/ml): 908.7*** pg/ml
- IL-6 % decrease with respect to LPS (IL-6; 1 μ/ml): 41.2%
- IL-6 Conc (pg/ml) (IL-6; 1 μ/ml): 1248.3*** pg/ml
- IL-6 % decrease with respect to LPS (IL-6; 5 μ/ml): 26.3%
- IL-6 Conc (pg/ml) (IL-6; 5 μ/ml): 1565.9*** pg/ml
- IL-6 % decrease with respect to LPS (IL-6; 10 μ/ml): 76.4%
- IL-6 Conc (pg/ml) (IL-6; 10 μ/ml): 501.5*** pg/ml
- IL-6 % decrease with respect to LPS (IL-6; 100 μ/ml): 35.4%
- IL-6 Conc (pg/ml) (IL-6; 100 μ/ml): 1371.8*** pg/ml
- IL-6 % decrease with respect to LPS (IL-6; 500 μ/ml): 68.5%
- IL-6 Conc (pg/ml) (IL-6; 500 μ/ml): 669.1*** pg/ml
- inhibition of IL-6 secretion as compared to LPS treated cells (IL-6; RAW264.7, 0.1 μg/ml-500 μg/ml): 26.3%-76.4%
- inhibition at 10 µg/mL (EGFR (ErbB1); 10 μg/ml): 43%
- inhibition at 50 µg/mL (EGFR (ErbB1); cell free, 50 μg/ml): 43%
- inhibition at 100 µg/mL (EGFR (ErbB1); cell free, 100 μg/ml): -12%
- inhibition at 250 µg/mL (EGFR (ErbB1); cell free, 250 μg/ml): -29%
- inhibition at 500 µg/mL (EGFR (ErbB1); cell free, 500 μg/ml): -56%
- inhibition at 1000 µg/mL (EGFR (ErbB1); cell free, 1000 μg/ml): -87%
- inhibition at 2000 µg/mL (EGFR (ErbB1); cell free, 2000 μg/ml): -155%
- % Stability ([1]; 0.9% NaCl solution, 2-8° C.): 93.64%
- % Stability ([1]; 0.9% NaCl solution, 37° C.): 104.94%
- % Stability ([1]; 0.9% NaCl solution, Room Temperature): 101.84%
- % Stability ([1]; Phosphate buffer pH 5.0, 2-8° C.): 96.53%
- % Stability ([1]; Phosphate buffer pH 5.0, 37° C.): 104.05%
- % Stability ([1]; Phosphate buffer pH 5.0, Room Temperature): 102.20%
- % Stability ([1]; Phosphate buffer pH 7.4, 2-8° C.): 97.99%
- % Stability ([1]; Phosphate buffer pH 7.4, 37° C.): 107.22%
- % Stability ([1]; Phosphate buffer pH 7.4, Room Temperature): 102.41%
- % Stability ([1]; Water, 2-8° C.): 94.66%
- % Stability ([1]; Water, 37° C.): 98.57%
- % Stability ([1]; Water, Room Temperature): 93.99%
- increase in pro-apoptotic cells (Sub-G0/G1 population) vs untreated ([2]; 100 μg/ml): 9.1 fold
- increase in pro-apoptotic cells (Sub-G0/G1 population) vs untreated ([2]; 500 μg/ml): 7.1 fold
- increase in pro-apoptotic cells (Sub-G0/G1 population) vs untreated ([2]; 1000 μg/ml): 2.3 fold
- increase in pro-apoptotic cells (Sub-G0/G1 population) vs untreated ([2]; 5000 μg/ml): 29.7 fold
- TNF-α % decrease with respect to TNF-α (TNF-α; 0.1 μg/ml): −7.5%
- TNF-α Conc (TNF-α; 0.1 μg/ml): 22731.8 pg/mL
- TNF-α % decrease with respect to TNF-α (TNF-α; 1 μg/ml): 5.8%
- TNF-α Conc (TNF-α; 1 μg/ml): 19924.1 pg/mL
- TNF-α % decrease with respect to TNF-α (TNF-α; 5 μg/ml): −8.1%
- TNF-α Conc (TNF-α; 5 μg/ml): 22852.1 pg/mL
- TNF-α % decrease with respect to TNF-α (TNF-α; 10 μg/ml): −15.7%
- TNF-α Conc (TNF-α; 10 μg/ml): 24469.9 pg/mL
- TNF-α % decrease with respect to TNF-α (TNF-α; 100 μg/ml): −18.8%
- TNF-α Conc (TNF-α; 100 μg/ml): 25125.0 pg/mL
